The conditions of data set [1]: cited from earlier work.

Molecules are shown by their SMILES. A value given as a limit tells only on which side of the number the result lay.

For the compound `C=CC(=O)N1CCC[C@@H](n2nc(-c3ccc(Oc4ccccc4)cc3)c3c(N)ncnc32)C1` [ibrutinib, Ibrutinib], the “solubility in dichloromethane (DCM)” value (DCM) is recorded as over 300 mg/g. In addition, under “water”, the aqueous solubility is given as under 2.5 mg/g. In addition, the pKa result in data set [1] is reported as “about 3.74”.

The values above are taken from patent US20230404922A1, “MICROSPHERE FORMULATIONS COMPRISING BTK INHIBITORS AND METHODS FOR MAKING AND USING THE SAME” (Oakwood Laboratories, LLC, priority 2021, published 2023).
